Laboratory results published in US20100267561A1, “HERBICIDAL PYRIDAZINONE DERIVATIVES” (priority 2007, published 2010).

Columns and labels:
Experiment in all cases: Test A pre-/postemergence plant response
Type in all cases: in vivo
corn (Zea mays) = system: corn (Zea mays)
In short: (§1)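 Ratings are visual, 0–100, where 100 means complete control and 0 no effect, taken roughly 10 days after treatment by comparison with untreated controls. Formulation: non-phytotoxic solvent mixture with surfactant.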

[1] = system: wheat (Triticum aestivum)
In short: as §1

[2] = system: canarygrass (Phalaris minor)
In short: as §1

[3] = system: barnyardgrass (Echinochloa crus-galli)
In short: as §1

[4] = system: blackgrass (Alopecurus myosuroides)
In short: as §1

[5] = system: pigweed (Amaranthus retroflexus)
In short: as §1

[6] = system: large crabgrass (Digitaria sanguinalis)
In short: as §1

[7] = system: giant foxtail (Setaria faberi)
In short: as §1

[8] = Postemergence, 31 g ai/ha, 0 to 100 scale (0 no effect, 100 complete control)
[9] = Postemergence, 125 g ai/ha, 0 to 100 scale, 0 no effect, 100 complete control
[10] = Preemergence, 31 g ai/ha, 0 to 100 scale, 0 is no effect, 100 is complete control
[11] = Preemergence, 125 g ai/ha, 0 to 100 scale (0 no effect, 100 complete control)

| SMILES | Plant response rating, Corn (corn (Zea mays); [8]) | Plant response rating, Corn (corn (Zea mays); [9]) | Plant response rating, Corn (corn (Zea mays); [11]) | Plant response rating, Wheat [1, 8] | Plant response rating, Wheat [1, 9] | Plant response rating, Wheat [1, 10] | Plant response rating, Wheat [1, 11] | Plant response rating, Canarygrass [2, 8] | Plant response rating, Canarygrass [2, 9] | Plant response rating, Canarygrass [2, 10] | Plant response rating, Canarygrass [2, 11] | Plant response rating, Barnyardgrass [3, 8] | Plant response rating, Barnyardgrass [3, 9] | Plant response rating, Barnyardgrass [3, 10] | Plant response rating, Barnyardgrass [3, 11] | Plant response rating, Blackgrass [4, 8] | Plant response rating, Blackgrass [4, 9] | Plant response rating, Blackgrass [4, 10] | Plant response rating, Blackgrass [4, 11] | Plant response rating, Pigweed [5, 9] | also measured |
| --- | --- | --- | --- | --- | --- | --- | --- | --- | --- | --- | --- | --- | --- | --- | --- | --- | --- | --- | --- | --- | --- |
| Cn1ncc(O)c(-c2nn(-c3ccc(C(F)(F)F)cc3)cc2Cl)c1=O [Compound 88] | 0 | 50 | 20 | 20 | 60 | 0 | 40 | 30 | 70 | 0 | 70 | 10 | 90 | 0 | 90 | 10 | 70 | 40 | 80 | 0 | Plant response rating, Corn (corn (Zea mays); [10]): 0; Plant response rating, Pigweed [5, 8]: 0; Plant response rating, Pigweed [5, 10]: 0; Plant response rating, Pigweed [5, 11]: 0; Plant response rating, Crabgrass, Large [6, 8]: 40; Plant response rating, Crabgrass, Large [6, 9]: 90; Plant response rating, Crabgrass, Large [6, 10]: 0; Plant response rating, Crabgrass, Large [6, 11]: 90; Plant response rating, Foxtail, Giant [7, 8]: 40; Plant response rating, Foxtail, Giant [7, 9]: 90; Plant response rating, Foxtail, Giant [7, 10]: 40; Plant response rating, Foxtail, Giant [7, 11]: 90 |
| CCc1cc(-c2ccc(Br)cc2)nn1-c1c(O)c(OC)nn(C)c1=O [Compound 89] | 100 | 100 | 70 | 80 | 90 | 40 | 90 | 100 | 100 | 50 | 100 | 100 | 100 | 30 | 100 | 100 | 100 | 90 | 100 | 0 | Plant response rating, Corn (corn (Zea mays); [10]): 50; Plant response rating, Pigweed [5, 10]: 0; Plant response rating, Pigweed [5, 11]: 0; Plant response rating, Crabgrass, Large [6, 8]: 100; Plant response rating, Crabgrass, Large [6, 9]: 100; Plant response rating, Crabgrass, Large [6, 10]: 70; Plant response rating, Crabgrass, Large [6, 11]: 100; Plant response rating, Foxtail, Giant [7, 8]: 100; Plant response rating, Foxtail, Giant [7, 9]: 100; Plant response rating, Foxtail, Giant [7, 10]: 90; Plant response rating, Foxtail, Giant [7, 11]: 100 |
| CCc1cc(-c2ccc(C(F)(F)F)cc2)nn1-c1c(OC(=O)c2ccc(Cl)nc2)cnn(C)c1=O [Compound 94] | 100 | 100 | 90 | 50 | 80 | 50 | 90 | 70 | 100 | 70 | 90 | 100 | 100 | 50 | 100 | 80 | 100 | 60 | 100 | 0 | Plant response rating, Pigweed [5, 8]: 0; Plant response rating, Pigweed [5, 10]: 0; Plant response rating, Pigweed [5, 11]: 0; Plant response rating, Crabgrass, Large [6, 8]: 90; Plant response rating, Crabgrass, Large [6, 9]: 100; Plant response rating, Crabgrass, Large [6, 10]: 70; Plant response rating, Crabgrass, Large [6, 11]: 100; Plant response rating, Foxtail, Giant [7, 8]: 100; Plant response rating, Foxtail, Giant [7, 9]: 100; Plant response rating, Foxtail, Giant [7, 10]: 90; Plant response rating, Foxtail, Giant [7, 11]: 100 |
| Cc1c(Br)c(-c2ccc(Br)cc2)nn1-c1c(O)cnn(C)c1=O [Compound 70] | 0 | 20 | 0 | 0 | 0 | 0 | 0 | 0 | 0 | 0 | 0 | 0 | 50 | 0 | 0 | 0 | 10 | 0 | 0 | 0 | Plant response rating, Corn (corn (Zea mays); [10]): 0; Plant response rating, Pigweed [5, 8]: 0; Plant response rating, Pigweed [5, 10]: 0; Plant response rating, Pigweed [5, 11]: 0; Plant response rating, Crabgrass, Large [6, 8]: 0; Plant response rating, Crabgrass, Large [6, 9]: 0; Plant response rating, Crabgrass, Large [6, 10]: 0; Plant response rating, Crabgrass, Large [6, 11]: 0; Plant response rating, Foxtail, Giant [7, 8]: 0; Plant response rating, Foxtail, Giant [7, 9]: 0; Plant response rating, Foxtail, Giant [7, 10]: 0; Plant response rating, Foxtail, Giant [7, 11]: 0 |
